Results: patent publication US20240051931A1, “HDAC INHIBITORS” (University of Pittsburgh - Of the Commonwealth System of …, priority 2020, published 2024)

Legend:
PanHDAC = PanHDAC activity at fixed concentration (Table 2); format: biochemical; parameters: unit not given here; conditions: compound at 1 uM
HDAC 6 = molecular target: T1, HDAC 6 (Homo sapiens, UniProt Q9UBN7); experiment: HDAC 6 activity at fixed concentration (Table 2); format: biochemical; parameters: unit not given here; conditions: compound at 50 nM
T1 sequence (Q9UBN7 1-1215): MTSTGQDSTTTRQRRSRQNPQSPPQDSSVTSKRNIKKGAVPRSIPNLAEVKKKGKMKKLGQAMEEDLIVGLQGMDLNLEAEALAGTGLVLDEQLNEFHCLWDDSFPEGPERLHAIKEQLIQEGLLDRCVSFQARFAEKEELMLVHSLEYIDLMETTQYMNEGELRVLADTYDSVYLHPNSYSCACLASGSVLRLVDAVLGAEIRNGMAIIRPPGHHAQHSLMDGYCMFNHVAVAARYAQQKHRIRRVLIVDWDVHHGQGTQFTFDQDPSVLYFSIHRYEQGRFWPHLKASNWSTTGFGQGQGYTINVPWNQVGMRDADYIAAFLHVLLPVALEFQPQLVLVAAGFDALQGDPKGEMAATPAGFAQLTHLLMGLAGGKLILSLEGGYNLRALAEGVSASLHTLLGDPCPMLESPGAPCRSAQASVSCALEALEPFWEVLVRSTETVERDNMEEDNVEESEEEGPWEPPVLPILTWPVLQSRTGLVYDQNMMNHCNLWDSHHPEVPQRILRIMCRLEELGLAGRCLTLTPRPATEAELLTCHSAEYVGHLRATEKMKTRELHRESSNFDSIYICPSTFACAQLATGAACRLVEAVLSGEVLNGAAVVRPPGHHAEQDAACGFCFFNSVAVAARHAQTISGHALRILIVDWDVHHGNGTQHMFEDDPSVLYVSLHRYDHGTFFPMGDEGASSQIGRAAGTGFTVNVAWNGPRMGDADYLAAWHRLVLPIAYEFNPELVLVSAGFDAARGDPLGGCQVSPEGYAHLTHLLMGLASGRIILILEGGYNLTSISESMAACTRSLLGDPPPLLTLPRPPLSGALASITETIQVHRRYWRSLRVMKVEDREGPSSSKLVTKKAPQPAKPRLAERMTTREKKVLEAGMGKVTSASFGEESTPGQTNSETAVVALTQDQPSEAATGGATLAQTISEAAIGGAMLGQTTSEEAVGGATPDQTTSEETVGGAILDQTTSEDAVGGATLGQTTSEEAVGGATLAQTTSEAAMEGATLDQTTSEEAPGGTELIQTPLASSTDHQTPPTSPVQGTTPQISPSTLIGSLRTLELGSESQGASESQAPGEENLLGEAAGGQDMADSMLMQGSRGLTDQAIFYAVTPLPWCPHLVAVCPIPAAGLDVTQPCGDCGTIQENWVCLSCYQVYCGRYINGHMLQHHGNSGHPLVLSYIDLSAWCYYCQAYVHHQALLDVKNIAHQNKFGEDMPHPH

O=C(NO)C1CCc2cc(Cl)ccc2O1 (centres unmarked) [Compound 1-1]
PanHDAC at 1 uM (PanHDAC): 0 | HDAC 6 at 50 nM (HDAC 6): 33

O=C(NO)C1CCc2cccc(NS(=O)(=O)c3ccc(F)cc3)c2O1 (centres unmarked) [Compound 1-2]
PanHDAC at 1 uM (PanHDAC): 0 | HDAC 6 at 50 nM (HDAC 6): 5

O=C(NO)[C@@H]1CCc2ccccc2O1 [Compound 1-3]
PanHDAC at 1 uM (PanHDAC): 0 | HDAC 6 at 50 nM (HDAC 6): 46

O=C(NO)[C@H]1CCc2ccccc2O1 [Compound 1-4]
PanHDAC at 1 uM (PanHDAC): 0 | HDAC 6 at 50 nM (HDAC 6): 47

COc1ccc(C(=O)Nc2ccc3c(c2)CCC(C(=O)NO)O3)cc1 (centres unmarked) [Compound 1-5]
PanHDAC at 1 uM (PanHDAC): 0 | HDAC 6 at 50 nM (HDAC 6): 29

O=C(Nc1ccc2c(c1)CCC(C(=O)NO)O2)c1ccc(S(F)(F)(F)(F)F)cc1 (centres unmarked) [Compound 1-6]
PanHDAC at 1 uM (PanHDAC): 0 | HDAC 6 at 50 nM (HDAC 6): 41

O=C(NO)C1CCc2cc(CCCOc3ccc(F)cc3)ccc2O1 (centres unmarked) [Compound 1-7]
PanHDAC at 1 uM (PanHDAC): 0 | HDAC 6 at 50 nM (HDAC 6): 35

O=C(Nc1cccc2c1OC(C(=O)NO)CC2)OCc1ccccc1 (centres unmarked) [Compound 1-8]
PanHDAC at 1 uM (PanHDAC): 0 | HDAC 6 at 50 nM (HDAC 6): 0

O=C(Nc1ccc2c(c1)CCC(C(=O)NO)O2)OCc1ccccc1 (centres unmarked) [Compound 1-9]
PanHDAC at 1 uM (PanHDAC): 0 | HDAC 6 at 50 nM (HDAC 6): 50

O=C(NO)C1CCc2cc(C#CCOc3ccc(F)cc3)ccc2O1 (centres unmarked) [Compound 1-10]
PanHDAC at 1 uM (PanHDAC): 0 | HDAC 6 at 50 nM (HDAC 6): 42

C#Cc1ccc2c(c1)CCC(C(=O)NO)O2 (centres unmarked) [Compound 1-11]
PanHDAC at 1 uM (PanHDAC): 3 | HDAC 6 at 50 nM (HDAC 6): 25

O=C(NCc1ccccc1)Nc1cccc2c1OC(C(=O)NO)CC2 (centres unmarked) [Compound 1-12]
PanHDAC at 1 uM (PanHDAC): 0 | HDAC 6 at 50 nM (HDAC 6): 28

O=C(Nc1cccc2c1OC(C(=O)NO)CC2)OCc1ccccc1Cl (centres unmarked) [Compound 1-13]
PanHDAC at 1 uM (PanHDAC): 0 | HDAC 6 at 50 nM (HDAC 6): 23

O=C(NO)C1CCc2cc(NS(=O)(=O)c3cc(Cl)cc(Cl)c3)ccc2O1 (centres unmarked) [Compound 1-14]
PanHDAC at 1 uM (PanHDAC): 21 | HDAC 6 at 50 nM (HDAC 6): 0

O=C(NCc1ccc(Cl)c(C(F)(F)F)c1)Nc1ccc2c(c1)CCC(C(=O)NO)O2 (centres unmarked) [Compound 1-15]
PanHDAC at 1 uM (PanHDAC): 0 | HDAC 6 at 50 nM (HDAC 6): 26

O=C(NO)C1CCc2cc(CCCOC(=O)N3CCc4ccccc4C3)ccc2O1 (centres unmarked) [Compound 1-16]
PanHDAC at 1 uM (PanHDAC): 0 | HDAC 6 at 50 nM (HDAC 6): 73

O=C(NO)C1CCc2ccc(O)cc2O1 (centres unmarked) [Compound 1-17]
PanHDAC at 1 uM (PanHDAC): 0 | HDAC 6 at 50 nM (HDAC 6): 40

O=C(NO)C1CCc2cc(-c3ccc(F)cc3)ccc2O1 (centres unmarked) [Compound 1-18]
PanHDAC at 1 uM (PanHDAC): 0 | HDAC 6 at 50 nM (HDAC 6): 68

O=C(NO)C1CCc2cc(C#CCCC(=O)N3CCc4ccccc4C3)ccc2O1 (centres unmarked) [Compound 1-19]
PanHDAC at 1 uM (PanHDAC): 0 | HDAC 6 at 50 nM (HDAC 6): 27

O=C(NO)C1CCc2ccc(OCc3ccc(C(F)(F)F)cc3)cc2O1 (centres unmarked) [Compound 1-20]
PanHDAC at 1 uM (PanHDAC): 0 | HDAC 6 at 50 nM (HDAC 6): 32

O=C(NO)C1CCc2cc(-c3ccc(Cl)c(Cl)c3)ccc2O1 (centres unmarked) [Compound 1-21]
PanHDAC at 1 uM (PanHDAC): 0 | HDAC 6 at 50 nM (HDAC 6): 73

C[C@@H]1Cc2ccccc2O[C@@H]1C(=O)NO [Compound 1-22]
PanHDAC at 1 uM (PanHDAC): 0 | HDAC 6 at 50 nM (HDAC 6): 0

O=C(NO)C1CCc2cc(-c3ccc(-c4ccccc4)cc3)ccc2O1 (centres unmarked) [Compound 1-23]
PanHDAC at 1 uM (PanHDAC): 0 | HDAC 6 at 50 nM (HDAC 6): 50

O=C(NO)C1CCc2ccc(OCc3ccccn3)cc2O1 (centres unmarked) [Compound 1-24]
PanHDAC at 1 uM (PanHDAC): 0 | HDAC 6 at 50 nM (HDAC 6): 23

O=C(NO)C1CCc2ccc(OCCOc3ccc(F)cc3)cc2O1 (centres unmarked) [Compound 1-25]
PanHDAC at 1 uM (PanHDAC): 0 | HDAC 6 at 50 nM (HDAC 6): 0

O=C(Nc1ccc2c(c1)CC[C@@H](C(=O)NO)O2)c1cc(Cl)cc(Cl)c1 [Compound 1-26]
PanHDAC at 1 uM (PanHDAC): 0 | HDAC 6 at 50 nM (HDAC 6): 20

CN1CC(C(=O)NO)Oc2ccccc21 (centres unmarked) [Compound 1-27]
PanHDAC at 1 uM (PanHDAC): 0 | HDAC 6 at 50 nM (HDAC 6): 31

Cn1ccc2cc(-c3ccc4c(c3)CCC(C(=O)NO)O4)ccc21 (centres unmarked) [Compound 1-28]
PanHDAC at 1 uM (PanHDAC): 0 | HDAC 6 at 50 nM (HDAC 6): 44
